In US4225619A, “Substituted fluoracylresorcinols” (Boehringer Ingelheim GmBH, priority 1976, dated 1980):
In brackets after ≈: the same amount, converted by molar mass.

Assays:
Assay type in all cases: cell-based
[1] = tested on: Streptococcus Aronson; experiment: Serial dilution test; settings: for MIC: Streptococcus, 18-20 hours at 37° C., read-out: MIC, S.D.T., Streptococcus Aronson
Method: (§1) The inhibitory effect on bacteria and fungi was examined by the serial dilution test and the agar diffusion test (hole-test). As bacteria were used: Staphylococcus aureus SG 511, Streptococcus Aronson, Streptococcus pyogenes At CC 86 68; as fungi: Candida albicans AT CC 10231, Trichophyton mentagrophytes AT CC 9129 and Aspergillus niger.
(§2) 2. Glucose broth: for Sc. Aronson and St. pyogenes Recipe see meat extract broth. After sterilization 1 weight percent of glucose is added as a sterile 50% solution.
(§3) The age of the primary cultures is 24 hours for bacteria and 14 days for fungi. The standardization of the suspension of microorganisms is effected using a photometer according to Eppendorf (test tube .phi.14 mm, filter 546 nm) and a suspension for comparison consisting of barium sulfate, this suspension being created by adition of 3.0 ml of 1% barium chloride solution to 97 ml of 1% sulfuric acid. After the standardization the bacteria were further diluted to a concentration of 1:1000 by means of sodium chloride solution, the fungi were used in an undiluted state.
(§4) 40 mgm of the substance were put into a 10 ml measuring flask and filled up to the mark with the solvent (corresponds to a dilution of 1:250=4000 μg/ml). The further dilution series was standardized with distilled water or the respective solvent and the following substance concentrations were prepared: 1000; 250; 62.5 μg/ml.
(§5) The tubes were filled with 4.9 ml of the corresponding liquid nutrient medium. Then 0.1 ml of the substance dilution prepared above was added to each tube, so that the mentioned final concentrations were present. Finally each tube was inoculated with 0.1 ml of the standardized suspension of microorganisms. Control tests merely using the solvent are to be carried out simultaneously.
(§6) Bacteria were incubated at 37° C. for 18-20 hours and fungi at 27° C. for 7 days.
(§7) The measurement is carried out macroscopically defining the minimal inhibitory concentration (the lowest still microbiostatically effective concentration).

[2] = tested on: Streptococcus pyogenes At CC 86 68; experiment: Serial dilution test; settings: for MIC: Streptococcus pyogenes, ATCC8668, 18-20 hours at 37° C., read-out: MIC, S.D.T., Streptococcus pyogenes
Method: as §1, §2, §3, §4, §5, §6, §7

[3] = tested on: Staphylococcus aureus SG 511; experiment: Agar diffusion test (hole-test); settings: SG511, 18-20 hours at 37° C., read-out: MIC, A.D.T., Staphylococcus aureus SG 511
Method: as §1
1. Meat extract agar: for St. aureus SG 511
as §3, with “addition” for “adition”, “St. aureus SG 511 was” for “the bacteria were further”, “diluted” for “diluted to a concentration of”, “1:1000 and Sc. pyogenes and Aronson 1:100” for “1:1000”, “solution. The” for “solution, the”
(§8) 40 mgm of the substance were put into a 10 ml measuring flask and filled up to the mark with the solvent (corresponds to a dilution of 1:250=4000 μg/ml).
(§9) The dilutions to the concentrations under test were effected with distilled water or the respective solvent.
(§10) 19 ml of the nutrient medium were filled into sterile Petri dishes of a diameter of 8 cm and dried. Subsequently the agar plates were charged with 4 ml of seed agar. 100 ml of seed agar contain 1.25 ml of the suspension of microorganisms, an agar plate thus containing 0.05 ml of the suspension of microorganisms. After solidification of the agar, 5 holes of a diameter of 5 mm were punched into the plates and filled with 0.05 ml of the correspondingly concentrated substance solution.
(§11) Control tests merely using the solvent are to be carried out simultaneously.
as §6
(§12) The diameter of the area of inhibition in mm was measured after having deducted the diameter of the hole.

[4] = tested on: Staphylococcus aureus SG 511; experiment: Serial dilution test; settings: for MIC: Staphylococcus aureus, SG511, 18-20 hours at 37° C., read-out: MIC, S.D.T., Staphylococcus aureus SG 511
Method: as §1
1. Meat extract broth: for St. aureus SG 511
as §3, §4, §5, §6, §7

[5] = tested on: Corynebacterium acnes; experiment: Serial dilution test for Corynebacterium acnes; settings: for MIC: Cutibacterium acnes, 37° C. for 48 hours, read-out: MIC, S.D.T., Corynebacterium acnes
Method: Serial dilution test for Corynebacterium acnes and Pityrosporum ovale Nutrient medium
For Corynebacterium acnes: thioglycolate-broth for Pityrosporum ovale: Littmann's broth, 5 ml per tube.
Suspension of microorganisms in 0.9% sodium chloride solution, standardized using a photometer according to Eppendorf by means of a suspension for comparison consisting of barium sulfate, for Corynebacterium acnes in a dilution of 1:100, for Pityrosporum ovale in an undiluted state. 0.1 ml of the suspensions was used per test tube. Dimethyl sulfoxide served as a solvent for the substances.
The suspension with Corynebacteria acnes was incubated at 37° C. for 48 hours, the suspension of Pityrosporum ovale at 27° C. for 7 days. The reading was effected by macroscopic evaluation of the growth of microorganisms and registration of the minimal inhibitory concentration.

[6] = tested on: Streptococcus Aronson; experiment: Agar diffusion test (hole-test); settings: 18-20 hours at 37° C., read-out: MIC, A.D.T., Streptococcus Aronson
Method: as §1
(§13) 2. Glucose agar: for Sc. Aronson and St. pyogenes Recipe see meat extract agar. After sterilization 1 weight percent of glucose is added as a sterile 50% solution.
as §3, with “addition” for “adition”, “St. aureus SG 511 was” for “the bacteria were further”, “diluted” for “diluted to a concentration of”, “1:1000 and Sc. pyogenes and Aronson 1:100” for “1:1000”, “solution. The” for “solution, the”
as §8, §9, §10, §11, §6, §12

[7] = tested on: Streptococcus pyogenes At CC 86 68; experiment: Agar diffusion test (hole-test); settings: ATCC8668, 18-20 hours at 37° C., read-out: MIC, A.D.T., Streptococcus pyogenes
Method: as §1, §13
as §3, with “addition” for “adition”, “St. aureus SG 511 was” for “the bacteria were further”, “diluted” for “diluted to a concentration of”, “1:1000 and Sc. pyogenes and Aronson 1:100” for “1:1000”, “solution. The” for “solution, the”
as §8, §9, §10, §11, §6, §12

[8] = tested on: HeLa-cell culture; experiment: Inhibition of HeLa cell cultures; settings: Homo sapiens, 72 h, 37° C. for 3 days, 5% carbon dioxide; for IC50: read-out: ED50, HeLa cell culture; for minimal effective concentration: read-out: Minimal inhibitory concentration, HeLa cell culture
Method: Measurement of the inhibition of cell cultures
HeLa-cell culture was treated with trypsin and adjusted to a cell number of 150,000 cells/ml of fresh medium. The substance was always dissolved in the same quantity of dimethyl sulfoxide and then further diluted with growth medium. 0.1 ml of the substance-dilutions were added to each well of microtiter plates and then 0.2 ml of cell suspension were added (4 wells per dilution). Several growth controls containing 0.1 ml of growth medium instead of 0.1 ml of substance dilution were put up. After careful mixing, the cultures were incubated at 37° C. for 3 days in a 5% carbon dioxide atmosphere. The reading was effected in comparison with these controls. The results were given as the percentage of the deficiency and degeneration compared to the growth control. […] The statements are referred to μg of substance per ml of total medium.

[9] = reduced growth at this concentration

Row | SMILES | MIC [1] [µg/mL] | MIC [2] [µg/mL] | MIC [3] [µg/mL] | MIC [4] [µg/mL] | MIC [5] [µg/mL] | MIC [6] [µg/mL] | MIC [7] [µg/mL] | IC50 [8] [µg/mL] | Concentration with reduced growth (value in brackets), S.D.T., Streptococcus Aronson [1, 9] [µg/mL] | minimal effective concentration [8] [µg/mL] | Concentration with reduced growth (value in brackets), S.D.T., Streptococcus pyogenes [2, 9] [µg/mL] | Concentration with reduced growth (value in brackets), S.D.T., Staphylococcus aureus SG 511 [4, 9] [µg/mL] | Concentration with reduced growth (value in brackets), S.D.T., Corynebacterium acnes [5, 9] [µg/mL]
1 | CCCCCCCCC(C)c1c(O)ccc(C(=O)C(F)(F)F)c1O (centres unmarked) [M] | 20 (≈ 57.7 µM) | 1.25 (≈ 3.61 µM) | 250 (≈ 722 µM) | 1.25 (≈ 3.61 µM) | 0.31 (≈ 0.895 µM) | ≤ 15.6 | ≤ 15.6 | – | 1.25 | – | – | – | –
2 | CC(C)CCc1cc(C(=O)C(F)(F)F)c(O)cc1O [G, 2,4-Dihydroxy-5-iso-pentyl-trifluoroacetophenone] | 1.25 (≈ 4.52 µM) | 0.31 (≈ 1.12 µM) | ≤ 15.6 | 0.31 (≈ 1.12 µM) | 1.25 (≈ 4.52 µM) | ≤ 15.6 | ≤ 15.6 | 5.8 (≈ 21 µM) | – | 0.78 | – | – | –
3 | CCCCC(C)c1c(O)ccc(C(=O)C(F)(F)F)c1O (centres unmarked) [K] | 1.25 (≈ 4.31 µM) | 0.31 (≈ 1.07 µM) | ≤ 15.6 | 1.25 (≈ 4.31 µM) | 0.08 (≈ 0.276 µM) | ≤ 15.6 | ≤ 15.6 | 2.27 (≈ 7.82 µM) | – | 0.78 | – | – | –
4 | CCCCCCCCCc1cc(C(=O)C(F)(F)F)c(O)cc1O [J, 2,4-Dihydroxy-5-n-nonyl-trifluoroacetophenone] | 5 (≈ 15 µM) | 1.25 (≈ 3.76 µM) | ≤ 15.6 | 5 (≈ 15 µM) | 0.02 (≈ 0.0602 µM) | ≤ 15.6 | ≤ 15.6 | – | – | – | 0.08 | 1.25 | –

Now those with a lower MIC [1], led by results:

Row | MIC [1] [µg/mL] | MIC [2] [µg/mL] | MIC [3] [µg/mL] | MIC [4] [µg/mL] | MIC [5] [µg/mL] | MIC [6] [µg/mL] | MIC [7] [µg/mL] | IC50 [8] [µg/mL] | SMILES | Concentration with reduced growth (value in brackets), S.D.T., Streptococcus Aronson [1, 9] [µg/mL] | minimal effective concentration [8] [µg/mL] | Concentration with reduced growth (value in brackets), S.D.T., Streptococcus pyogenes [2, 9] [µg/mL] | Concentration with reduced growth (value in brackets), S.D.T., Staphylococcus aureus SG 511 [4, 9] [µg/mL] | Concentration with reduced growth (value in brackets), S.D.T., Corynebacterium acnes [5, 9] [µg/mL]
5 | 0.31 (≈ 0.832 µM) | 0.08 (≈ 0.215 µM) | 62.5 (≈ 168 µM) | 0.31 (≈ 0.832 µM) | 1.25 (≈ 3.36 µM) | ≤ 15.6 | 62.5 (≈ 168 µM) | – | O=C(c1ccc(O)c(C2CCCCCCCCCCC2)c1O)C(F)(F)F [L, 2,4-Dihydroxy-3-cyclododecyl-trifluoroacetophenone] | – | – | – | – | 0.31
6 | 0.08 (≈ 0.253 µM) | 0.31 (≈ 0.98 µM) | ≤ 15.6 | 0.31 (≈ 0.98 µM) | 0.08 (≈ 0.253 µM) | ≤ 15.6 | ≤ 15.6 | – | CC1CC(C)CC(c2cc(C(=O)C(F)(F)F)c(O)cc2O)C1 (centres unmarked) [I, 2,4-Dihydroxy-5-(3',5'-dimethyl)-cyclohexyl-tri-fluoroacetophenone] | – | – | – | – | –
